Source: patent publication US8722663B2, “Di-substituted pyridine derivatives as anticancers” (Otsuka Pharmaceutical Co., Ltd., priority 2010, dated 2014)
pIC50: −log10 of the molar value.

Legend:
[1] = system: bicalutamide resistant human prostate cancer cell line established from LNCaP.FGC (LNCaP-Bic); experiment: Growth inhibition of LNCaP-Bic cells, WST-8 assay; type: cell-based; conditions: 120 h, 5 days with test compound
Protocol: (§1) The growth inhibition on a bicalutamide resistant human prostate cancer cell line established from LNCaP.FGC (LNCaP-Bic) (Hobisch A, et al. Prostate. 2006; 66(4):413-20.) was determined by a WST-8 assay according to the method of Singh A K, et al. (Cancer Lett. 1996 Oct. 1; 107(1): 109-15.). In this method, LNCaP-Bic cells were seeded in RPMI 1640 medium containing 10% fetal bovine serum in a 96-well microplate and incubated at 37° C. for 24 hours in the presence of 5% carbon dioxide. Then, the test compound was added and the cells were incubated for another 5 days. After incubation, a 15-μL volume of WST-8 (2-(2-methoxy-4-nitrophenyl)-3-(4-nitrophenyl)-5-(2,4-[…])-2H-tetrazolium, monosodium salt) was added. After the incubation for the time, the color reaction was stopped by adding 15 μL of 1% SDS (sodium dodecyl sulfate) solution and the optical density was determined at the measurement wavelength of 450 nm and the reference wavelength of 630 nm, and the difference was calculated. The cell growth activity in each well was defined as the value determined by subtracting the OD in the control well not containing cells (the difference in absorbance between 450 nm and 630 nm) from that in the test well.
(§2) The 50% inhibitory concentration (IC50 (nM)) of the test compound was determined by comparing the cell growth activity in the well containing the test compound with that of the control not containing the test compound.

[2] = system: human prostate (carcinoma) cell line (LNCaP.FGC); experiment: Growth inhibition of LNCaP.FGC cells, WST-8 assay; type: cell-based; conditions: 120 h, 5 days with test compound
Protocol: as §1, §2
The growth inhibition on a human prostate (carcinoma) cell line (LNCaP.FGC) (van Bokhoven A, et al. Prostate. 2003; 57(3):205-25.) was also determined by the above method.

[3] = system: human prostate (adenocarcinoma) cell line (VcaP); experiment: Growth inhibition of VcaP cells, WST-8 assay; type: cell-based; conditions: 120 h, 5 days with test compound
Protocol: as §1, §2
The growth inhibition on a human prostate (adenocarcinoma) cell line (VcaP) (Korenchuk S, et al. In Vivo. 2001; 15(2):163-8.) was also determined by the above method.

[4] = system: human prostate (carcinoma) cell line (DU 145); experiment: Growth inhibition of DU 145 cells, WST-8 assay; type: cell-based; conditions: 120 h, 5 days with test compound
Protocol: as §1, §2
The growth inhibition on a human prostate (carcinoma) cell line (DU 145) (van Bokhoven A, et al. Prostate. 2003; 57(3):205-25.) was also determined by the above method.

[5] = system: human prostate (adenocarcinoma) cell line (PC-3); experiment: Growth inhibition of PC-3 cells, WST-8 assay; type: cell-based; conditions: 120 h, 5 days with test compound
Protocol: as §1, §2
The growth inhibition on a human prostate (adenocarcinoma) cell line (PC-3) (van Bokhoven A, et al. Prostate. 2003; 57(3):205-25.) was also determined by the above method.

[6] = system: human breast cancer cell line (MDA-MB-468); experiment: Growth inhibition of MDA-MB-468 cells, sulforhodamine B method; type: cell-based; conditions: 120 h, 5 days with test compound
Protocol: Growth inhibition of a human breast cancer cell line (MDA-MB-468) was determined by the sulforhodamine B method based on the method of Skehan P. et al. (J Natl Cancer Inst. 1990 Jul. 4; 82(13): 1107-12). In the study, MDA-MB-468 cells were seeded on DMEM medium containing 10% fetal bovine serum in a 96-well microplate. After 24-h incubation at 37° C. in the presence of 5% carbon dioxide, the test compound was added and the cells were incubated for another 5 days. After incubation, a trichloroacetic acid solution was added to yield the final concentration of 10% and the cells were left to stand at 4° C. for 1 hour to fix. Then, the cells were washed with water to remove the medium and trichloroacetic acid and dried in the air. The dried cells were stored at 4° C. until they were stained with sulforhodamine B. To each well, 1% acetic acid solution containing 0.4% sulforhodamine B was added and left to stand for 20 to 30 minutes at room temperature. After discarding the supernatant, each well was washed with 1% acetic acid solution, and 10 mM Tris([…]) solution was added while stirring to elute the dye taken into the cells. Then, the optical density was determined at the measurement wavelength of 492 nm and the reference wavelength of 690 nm, and the difference was calculated. The cell growth activity in each well was defined as the value determined by subtracting the OD in the control well not containing cells (the difference in absorbance between 492 nm and 690 nm) from that in the test well.
as §2

| IC50 [1] [nM] | IC50 [2] [nM] | IC50 [3] [nM] | IC50 [4] [nM] | IC50 [5] [nM] | melting point [°C] | pIC50 [6] | Compound |
| --- | --- | --- | --- | --- | --- | --- | --- |
| – | – | – | – | – | – | > 8.00 | Cc1ccc(COc2ccc(Oc3c(C)cc(/C=C/C(=O)N4CCCN(Cc5ccc(CCOc6ccc(C(C)C)cc6)cc5)CC4)cc3Cl)nc2)cc1 [Example 123, (E)-3-[3-Chloro-5-methyl-4-({5-[(4-methylbenzyl)oxy]pyridin-2-yl}oxy)phenyl]-1-[4-(4-{2-[4-(propan-2-yl)phenoxy]ethyl}benzyl)-1,4-diazepan-1-yl]prop-2-en-1-one] |
| – | – | – | – | – | – | > 8.00 | Cc1cc(/C=C/C(=O)N2CCN(Cc3ccc(CCOc4ccc(C#N)cc4)cc3)CC2)cc(Cl)c1Oc1ccc(OCc2ccc(C(F)(F)F)cc2)cn1 [Example 289, 4-{2-[4-({4-[(E)-3-{3-chloro-5-methyl-4-[(5-{[4-(trifluoromethyl)benzyl]oxy}pyridin-2-yl)oxy]phenyl}prop-2-enoyl]piperazin-1-yl}methyl)phenyl]ethoxy}benzonitrile] |
| – | – | – | – | – | – | > 8.00 | Cc1ccc(COc2ccc(Oc3c(C)cc(/C=C/C(=O)N4CCN(Cc5ccc(CCOc6ccc(N(C)C)cc6)cc5)CC4)cc3Cl)nc2)cc1 [Example 321, (E)-3-[3-chloro-5-methyl-4-({5-[(4-methylbenzyl)oxy]-pyridin-2-yl}oxy)phenyl]-1-[4-(4-{2-[4-(dimethylamino)phenoxy]ethyl}benzyl)piperazin-1-yl]prop-2-en-1-one] |
| – | – | – | – | – | – | > 8.00 | Cc1ccc(COc2ccc(Oc3c(C)cc(/C=C/C(=O)N4CCN(Cc5ccc(C)cc5)CC4)cc3Cl)nc2)cc1 [Example 359, (E)-3-[3-Chloro-5-methyl-4-({5-[(4-methylbenzyl)oxy]pyridin-2-yl}oxy)phenyl]-1-[4-(4-methylbenzyl)piperazin-1-yl]prop-2-en-1-one] |
| < 10 | < 10 | < 10 | < 10 | < 10 | 224.7 to 224.8 | – | Cc1ccc(COc2ccc(Oc3c(C)cc(/C=C/C(=O)N4CCN(Cc5ccc(CCOc6ccc(Cl)cc6)cc5)CC4)cc3Cl)nc2)cc1F.Cl [Example 427, (E)-3-[3-Chloro-4-({5-[(3-fluoro-4-methylbenzyl)oxy]pyridin-2-yl}oxy)-5-methylphenyl]-1-(4-{4-[2-(4-chlorophenoxy)ethyl]benzyl}piperazin-1-yl)prop-2-en-1-one hydrochloride] |
| < 10 | < 10 | < 10 | < 10 | < 10 | 224 to 224.5 | – | Cc1cc(/C=C/C(=O)N2CCN(Cc3ccc(CCOc4ccc(F)cc4)cc3)CC2)cc(Cl)c1Oc1ccc(OCc2ccccc2F)cn1.Cl [Example 447, (E)-3-[3-Chloro-4-({5-[(2-fluorobenzyl)oxy]pyridin-2-yl}oxy)-5-methylphenyl]-1-(4-{4-[2-(4-fluorophenoxy)ethyl]benzyl}piperazin-1-yl)prop-2-en-1-one hydrochloride] |
| < 10 | < 10 | < 10 | < 10 | < 10 | 193 to 194.8 | – | Cc1ccc(OCCCc2ccc(CN3CCN(C(=O)/C=C/c4cc(C)c(Oc5ccc(OCc6ccc(C#N)cc6)cn5)c(Cl)c4)CC3)cc2)cc1.Cl [Example 621, 4-{[(6-{2-Chloro-6-methyl-4-[(E)-3-(4-{4-[3-(4-methylphenoxy)propyl]benzyl}piperazin-1-yl)-3-oxoprop-1-en-1-yl]phenoxy}pyridin-3-yl)oxy]methyl}benzonitrile hydrochloride] |

Further lines, the compound ahead of its results:

| Compound | IC50 [1] [nM] | IC50 [2] [nM] | IC50 [3] [nM] | IC50 [4] [nM] | IC50 [5] [nM] | melting point [°C] | pIC50 [6] |
| --- | --- | --- | --- | --- | --- | --- | --- |
| COc1ccc(COc2ccc(Oc3c(C)cc(/C=C/C(=O)N4CCN(Cc5ccc(/C=C/COc6ccc(C)cc6)cc5)CC4)cc3C)nc2)cc1 [Example 1, (2E)-3-[4-({5-[(4-methoxybenzyl)oxy]pyridin-2-yl}oxy)-3,5-dimethylphenyl]-1-(4-{4-[(1E)-3-(4-methylphenoxy)prop-1-en-1-yl]benzyl}piperazin-1-yl)prop-2-en-1-one] | < 10 | < 10 | < 10 | < 10 | < 10 | 130 to 132 | – |
| Cc1cc(/C=C/C(=O)N2CCN(Cc3ccc(CCOc4ccc(C(C)C)cc4)cc3)CC2)ccc1Oc1ccc(OCc2ccccc2Cl)cn1.Cl [Example 507, (E)-3-[4-({5-[(2-Chlorobenzyl)oxy]pyridin-2-yl}oxy)-3-methylphenyl]-1-[4-(4-{2-[4-(propan-2-yl)phenoxy]ethyl}benzyl)piperazin-1-yl]prop-2-en-1-one hydrochloride] | < 10 | < 10 | < 10 | < 10 | < 10 | 178.2 to 178.9 | – |
| CCOc1cccc(OCCc2ccc(CN3CCN(C(=O)/C=C/c4cc(C)c(Oc5ccc(OCc6cncs6)cn5)c(C)c4)CC3)cc2)c1.Cl [Example 594, (E)-3-(3,5-Dimethyl-4-{[5-(1,3-thiazol-5-ylmethoxy)pyridin-2-yl]oxy}phenyl)-1-(4-{4-[2-(3-ethoxyphenoxy)ethyl]benzyl}piperazin-1-yl)prop-2-en-1-one hydrochloride] | < 10 | < 10 | < 10 | < 10 | < 10 | 190.4 to 191.8 | – |
| Cc1cc(/C=C/C(=O)N2CCN(Cc3ccc(CCOc4ccc(C(C)C)cc4)cc3)CC2)cc(C)c1Oc1ccc(OCc2cncs2)cn1.Cl [Example 595, (E)-3-(3,5-Dimethyl-4-{[5-(1,3-thiazol-5-ylmethoxy)pyridin-2-yl]oxy}phenyl)-1-[4-(4-{2-[4-(propan-2-yl)phenoxy]ethyl}benzyl)piperazin-1-yl]prop-2-en-1-one hydrochloride] | < 10 | < 10 | < 10 | < 10 | < 10 | 199.2 to 200.9 | – |
| Cc1cc(/C=C/C(=O)N2CCN(Cc3ccc(CCOc4ccc(C(F)(F)F)cn4)cc3)CC2)cc(Cl)c1Oc1ccc(OCc2ccc(C#N)cc2)cn1.Cl [Example 613, 4-{[(6-{2-Chloro-6-methyl-4-[(E)-3-oxo-3-{4-[4-(2-{[5-(trifluoromethyl)pyridin-2-yl]oxy}-ethyl)benzyl]piperazin-1-yl}prop-1-en-1-yl]phenoxy}pyridin-3-yl)oxy]methyl}benzonitrile hydrochloride] | < 10 | < 10 | < 10 | < 10 | < 10 | 193.7 to 194.2 | – |
| Cc1cc(/C=C/C(=O)N2CCN(Cc3ccc(/C=C/COc4ccc(Br)cn4)cc3)CC2)cc(Cl)c1Oc1ccc(OCc2ccc(C#N)cc2)cn1.Cl [Example 657, 4-({[6-(4-{(1E)-3-[4-(4-{(1E)-3-[(5-Bromopyridin-2-yl)oxy]prop-1-en-1-yl}benzyl)piperazin-1-yl]-3-oxoprop-1-en-1-yl}-2-chloro-6-methylphenoxy)pyridin-3-yl]oxy}methyl)benzonitrile hydrochloride] | < 10 | < 10 | < 10 | < 10 | < 10 | 145 to 145.8 | – |
| COc1ccc(NCCc2ccc(CN3CCN(C(=O)/C=C/c4ccc(Oc5ccc(OCc6ccc(C#N)cc6)cn5)c(Cl)c4)CC3)cc2)cc1.Cl.Cl [Example 669, 4-({[6-(2-Chloro-4-{(E)-3-[4-(4-{2-[(4-methoxyphenyl)amino]ethyl}benzyl)piperazin-1-yl]-3-oxoprop-1-en-1-yl}phenoxy)pyridin-3-yl]oxy}methyl)benzonitrile dihydrochloride] | < 10 | < 10 | < 10 | < 10 | < 10 | 219.5 to 222.3 | – |
